Each structure is given as a SMILES string. Where a name gives a salt, the structure may show the parent alone. Read-outs that look alike come from different tables or passages of the source.

Experiment in all cases: AK assay 384-well format, Prestwick library screening
For assay [1], the system named is E. faecium. Format: cell-based, Enterococcus faecium. The following applies: 50 μM final drug concentration; for fold induction at 50 µM: Enterococcus faecium, 3 h.
Assay [2] deals with S. aureus strain USA300-0114. In kind it is cell-based, Staphylococcus aureus. The following applies: 50 μM final drug concentration; for fold induction at 50 µM: Staphylococcus aureus, USA300, 3 h.
The subject of assay [3] is K. pneumoniae. Format: cell-based, Klebsiella pneumoniae. The following applies: 50 μM final drug concentration; for fold induction at 50 µM: Klebsiella pneumoniae, 3 h.
Assay [4] deals with A. baumannii strain 98-37-09. Format: cell-based, Acinetobacter baumannii. To be noted: 50 μM final drug concentration; for fold induction at 50 µM: Acinetobacter baumannii, 983709, 3 h.
For assay [5], the system named is P. aeruginosa. In kind it is cell-based, Pseudomonas aeruginosa. To be noted: 50 μM final drug concentration; for fold induction at 50 µM: Pseudomonas aeruginosa, 3 h.
The test system of assay [6] is E. cloacae. In kind it is cell-based, Enterobacter cloacae. The following applies: 50 μM final drug concentration; for fold induction at 50 µM: Enterobacter cloacae, 3 h.
The test system of assay [7] is E. coli. Format: cell-based, Escherichia coli. The following applies: 50 μM final drug concentration; for fold induction at 50 µM: Escherichia coli, 3 h.
[8] abbreviates: 384-well format, cutoff for positive-scoring molecules 3-fold increase, read-out: AK-based Prestwick Library Screening Results, E. faecium (increase in extracellular AK activity).
Setting [9] is: 384-well format, cutoff for positive-scoring molecules 3-fold increase, read-out: AK-based Prestwick Library Screening Results, S. aureus (increase in extracellular AK activity).
The mark [10] stands for this setting: 384-well format, cutoff for positive-scoring molecules 3-fold increase, read-out: AK-based Prestwick Library Screening Results, K. pneumoniae (increase in extracellular AK activity).
Where [11] appears, read: 384-well format, cutoff for positive-scoring molecules 3-fold increase, read-out: AK-based Prestwick Library Screening Results, A. baumannii (increase in extracellular AK activity).
Where [12] appears, read: 384-well format, cutoff for positive-scoring molecules 3-fold increase, read-out: AK-based Prestwick Library Screening Results, P. aeruginosa (increase in extracellular AK activity).
Setting [13] is: 384-well format, cutoff for positive-scoring molecules 3-fold increase, read-out: AK-based Prestwick Library Screening Results, E. cloacae (increase in extracellular AK activity).
Setting [14] is: 384-well format, cutoff for positive-scoring molecules 3-fold increase, read-out: AK-based Prestwick Library Screening Results, E. coli (increase in extracellular AK activity).

On to `O=C(C1CCCCC1)N1CC(=O)N2CCc3ccccc3C2C1` (stereo not drawn) [Praziquantel], for which the fold induction at 50 µM in assay [1] (setting [8]) was 1; in assay [2] (setting [9]), 0.8; in assay [3] (setting [10]), 0.6; in assay [4] (setting [11]), 0.7; in assay [5] (setting [12]), 0.6; in assay [6] (setting [13]) it was 0.7. The fold induction at 50 µM in assay [7] (setting [14]) was determined as 0.9.

As to `COc1ccc(C[C@H]2NC[C@H](O)[C@H]2OC(C)=O)cc1` [Anisomycin], the “AK-based Prestwick Library Screening Results, E. faecium (increase in extracellular AK activity)” value in assay [1] (planktonic E. faecium, […]) is 1.0. Besides, in assay [2] (planktonic S. aureus, […]), the “AK-based Prestwick Library Screening Results, S. aureus (increase in extracellular AK activity)” value worked out at 0.7. Also, the “AK-based Prestwick Library Screening Results, K. pneumoniae (increase in extracellular AK activity)” value in assay [3] (planktonic K. pneumoniae, […]) amounted to 0.5. Moreover, the “AK-based Prestwick Library Screening Results, A. baumannii (increase in extracellular AK activity)” value in assay [4] (planktonic A. baumannii, […]) is 0.7. Also, the “AK-based Prestwick Library Screening Results, P. aeruginosa (increase in extracellular AK activity)” value in assay [5] (planktonic P. aeruginosa, […]) worked out at 0.7. Also, the “AK-based Prestwick Library Screening Results, E. cloacae (increase in extracellular AK activity)” value in assay [6] (planktonic E. cloacae, […]) came to 0.7. In addition, the “AK-based Prestwick Library Screening Results, E. coli (increase in extracellular AK activity)” value in assay [7] (planktonic E. coli, […]) is 0.7.

Take `CC(C)OC(=O)C(C)(C)Oc1ccc(C(=O)c2ccc(Cl)cc2)cc1` [Fenofibrate]: the fold induction at 50 µM came out at 0.8 in assay [1] (setting [8]); 0.8 in assay [2] (setting [9]); 0.6 in assay [3] (setting [10]); 0.7 in assay [4] (setting [11]); 0.8 in assay [5] (setting [12]); 1.2 in assay [6] (setting [13]). Further, the fold induction at 50 µM in assay [7] (setting [14]) stood at 0.8.

As for `O=C1CCC(N2C(=O)c3ccccc3C2=O)C(=O)N1` (stereo not drawn) [Thalidomide], the fold induction at 50 µM was determined as 1 in assay [1] (setting [8]); 1 in assay [2] (setting [9]); 0.8 in assay [3] (setting [10]); 0.9 in assay [4] (setting [11]); 0.9 in assay [5] (setting [12]); 1.1 in assay [6] (setting [13]). In addition, the fold induction at 50 µM in assay [7] (setting [14]) was determined as 1.

Take `CCN1C(=O)NC(c2ccccc2)C1=O` (stereo not drawn) [Ethotoin]: the fold induction at 50 µM in assay [1] (cutoff for positive-scoring molecules 3-fold increase, read-out: AK-based Prestwick Library Screening Results, E. faecium (fold increase in extracellular AK activity)) was 1; in assay [2] (cutoff for positive-scoring molecules 3-fold increase, read-out: AK-based Prestwick Library Screening Results, S. aureus (fold increase in extracellular AK activity)), 1.2; in assay [3] (cutoff for positive-scoring molecules 3-fold increase, read-out: AK-based Prestwick Library Screening Results, K. pneumoniae (fold increase in extracellular AK activity)) it was 1; in assay [4] (cutoff for positive-scoring molecules 3-fold increase, read-out: AK-based Prestwick Library Screening Results, A. baumannii (fold increase in extracellular AK activity)) it was 1.1; in assay [5] (cutoff for positive-scoring molecules 3-fold increase, read-out: AK-based Prestwick Library Screening Results, P. aeruginosa (fold increase in extracellular AK activity)), 0.9; in assay [6] (cutoff for positive-scoring molecules 3-fold increase, read-out: AK-based Prestwick Library Screening Results, E. cloacae (fold increase in extracellular AK activity)), 1.6. The fold induction at 50 µM in assay [7] (cutoff for positive-scoring molecules 3-fold increase, read-out: AK-based Prestwick Library Screening Results, E. coli (fold increase in extracellular AK activity)) was 1.2.

Consider `CC(=O)CCCCn1c(=O)c2c(ncn2C)n(C)c1=O` [Pentoxifylline], for which the fold induction at 50 µM in assay [1] (setting [8]) worked out at 0.9; in assay [2] (setting [9]), 0.8; in assay [3] (setting [10]), 0.7; in assay [4] (setting [11]), 0.9; in assay [5] (setting [12]), 0.8; in assay [6] (setting [13]) it was 1.1. Besides, in assay [7] (setting [14]), the fold induction at 50 µM turned out to be 0.8.

As to `COC(=O)C1=C(C)NC(C)=C(C(=O)OCC(C)C)C1c1ccccc1[N+](=O)[O-]` (stereo not drawn) [Nisoldipine], the fold induction at 50 µM in assay [1] (planktonic, cutoff for positive-scoring molecules 3-fold increase, read-out: AK-based Prestwick Library Screening Results, E. faecium (fold increase in extracellular AK activity)) came to 0.9; in assay [2] (planktonic, cutoff for positive-scoring molecules 3-fold increase, read-out: AK-based Prestwick Library Screening Results, S. aureus (fold increase in extracellular AK activity)), 0.4; in assay [3] (planktonic, cutoff for positive-scoring molecules 3-fold increase, read-out: AK-based Prestwick Library Screening Results, K. pneumoniae (fold increase in extracellular AK activity)), 0.7; in assay [4] (planktonic, cutoff for positive-scoring molecules 3-fold increase, read-out: AK-based Prestwick Library Screening Results, A. baumannii (fold increase in extracellular AK activity)) it was 1.4; in assay [5] (planktonic, cutoff for positive-scoring molecules 3-fold increase, read-out: AK-based Prestwick Library Screening Results, P. aeruginosa (fold increase in extracellular AK activity)) it was 0.8; in assay [6] (planktonic, cutoff for positive-scoring molecules 3-fold increase, read-out: AK-based Prestwick Library Screening Results, E. cloacae (fold increase in extracellular AK activity)) it was 1. Further, in assay [7] (planktonic, cutoff for positive-scoring molecules 3-fold increase, read-out: AK-based Prestwick Library Screening Results, E. coli (fold increase in extracellular AK activity)), the fold induction at 50 µM amounted to 0.9.

Turning to `CCc1cc(C(N)=S)ccn1` [Ethionamide], the fold induction at 50 µM was found to be 1 in assay [1] (planktonic, cutoff for positive 3-fold increase, read-out: AK-based Prestwick Library Screening Results, E. faecium (fold increase in extracellular AK activity)); 1.3 in assay [2] (planktonic, cutoff for positive 3-fold increase, read-out: AK-based Prestwick Library Screening Results, S. aureus (fold increase in extracellular AK activity)); 1 in assay [3] (planktonic, cutoff for positive 3-fold increase, read-out: AK-based Prestwick Library Screening Results, K. pneumoniae (fold increase in extracellular AK activity)); 1.2 in assay [4] (planktonic, cutoff for positive 3-fold increase, read-out: AK-based Prestwick Library Screening Results, A. baumannii (fold increase in extracellular AK activity)); 1.1 in assay [5] (planktonic, cutoff for positive 3-fold increase, read-out: AK-based Prestwick Library Screening Results, P. aeruginosa (fold increase in extracellular AK activity)); 1.4 in assay [6] (planktonic, cutoff for positive 3-fold increase, read-out: AK-based Prestwick Library Screening Results, E. cloacae (fold increase in extracellular AK activity)). For the same compound, the fold induction at 50 µM in assay [7] (planktonic, cutoff for positive 3-fold increase, read-out: AK-based Prestwick Library Screening Results, E. coli (fold increase in extracellular AK activity)) was found to be 1.1.

Regarding `C[C@]12CCC(=O)C=C1C=C[C@@H]1[C@@H]2CC[C@@]2(C)[C@H]1CC[C@@]2(O)CCC(=O)O` [Canrenoic acid potassium salt], the fold induction at 50 µM was 1 in assay [1] (planktonic E. faecium, 384-well, cutoff for positive-scoring molecules 3-fold increase, read-out: AK-based Prestwick Library Screening Results: E. faecium (increase in extracellular AK activity)); 1.1 in assay [2] (planktonic S. aureus, 384-well, cutoff for positive-scoring molecules 3-fold increase, read-out: AK-based Prestwick Library Screening Results: S. aureus (increase in extracellular AK activity)); 0.9 in assay [3] (planktonic K. pneumoniae, 384-well, cutoff for positive-scoring molecules 3-fold increase, read-out: AK-based Prestwick Library Screening Results: K. pneumoniae (increase in extracellular AK activity)); 1.5 in assay [4] (planktonic A. baumannii, 384-well, cutoff for positive-scoring molecules 3-fold increase, read-out: AK-based Prestwick Library Screening Results: A. baumannii (increase in extracellular AK activity)); 1.3 in assay [5] (planktonic P. aeruginosa, 384-well, cutoff for positive-scoring molecules 3-fold increase, read-out: AK-based Prestwick Library Screening Results: P. aeruginosa (increase in extracellular AK activity)); 1.2 in assay [6] (planktonic E. cloacae, 384-well, cutoff for positive-scoring molecules 3-fold increase, read-out: AK-based Prestwick Library Screening Results: E. cloacae (increase in extracellular AK activity)). Also, the fold induction at 50 µM in assay [7] (planktonic E. coli, 384-well, cutoff for positive-scoring molecules 3-fold increase, read-out: AK-based Prestwick Library Screening Results: E. coli (increase in extracellular AK activity)) was found to be 1.4.

(Values after patent US10004701B2, “Methods and compositions for treating infection” (UNIVERSITY OF ROCHESTER, priority 2012, dated 2018).)
